From patent US20090062301A1, “PHARMACEUTICAL COMBINATION COMPOSITION COMPRISING AT LEAST ONE PKC INHIBITOR AND AT LEAST ONE JA K3 KINASE INHIBITOR FOR TREATING AUTOIMMUNE DISORDERS” (priority 2006, published 2009)

System: donor heart graft (rejection)
Test: Rat heart transplantation (graft survival)
Type: in vivo, rat (Male Lewis and BN)
From the text: A. Rat Heart Transplantation
The strain combination used: Male Lewis (RT^1 haplotype) and BN (RT^1 haplotype). The animals are anaesthetised using inhalational isofluorane. […] The aorta is ligated and divided distal to the first branch and the brachiocephalic trunk is divided at the first bifurcation. The left pulmonary artery is ligated and divided and the right side divided but left open. All other vessels are dissected free, ligated and divided and the donor heart is removed into iced saline.
The recipient is prepared by dissection and cross-clamping of the infra-renal abdominal aorta and vena cava. The graft is implanted with end-to-side anastomoses, using 10/0 monofilament suture, between the donor brachiocephalic trunk and the recipient aorta and the donor right pulmonary artery to the recipient vena cava. The clamps are removed, the graft tethered retroabdominally, the abdominal contents washed with warm saline and the animal is closed and allowed to recover under a heating lamp. Graft survival is monitored by daily palpation of the beating donor heart through the abdominal wall. Rejection is considered to be complete when heart beat stops.

Structure (SMILES) | EC50 (672 h, rat heart transplantation, CP-690,550 in mono-citrate salt form, concentration in blood, read-out: EC50 (drug concentration in blood at which 50% of the animals maintain their graft for >28 days)) | graft survival (rat heart transplantation, Compound A in the acetate form at 1 to 30 mg/kg/day and CP-690,550 mono-citrate at an EC50 of 60 ng/ml) | graft survival (rat, in vivo)
C[C@@H]1CCN(C(=O)CC#N)C[C@@H]1N(C)c1ncnc2[nH]ccc12 [CP-690,550, 3-{(3R,4R)-4-methyl-3-[methyl-(7H-pyrrolo[2,3-d]pyrimidin-4-yl)-amino]-piperidin-1-yl}-3-oxo-propionitrile] | 0.06 µg/mL | significantly increase the graft survival | 
CN1CCN(c2nc(C3=C(c4c[nH]c5ccccc45)C(=O)NC3=O)c3ccccc3n2)CC1 [Compound A, 3-(1.H.-indol-3-yl)-4-[2-(4-methyl-piperazin-1-yl)-quinazolin-4-yl]-pyrrole-2,5-dione] |  |  | significantly increase the graft survival
